Experiments:
[1] = system: Lindernia procumbens; test: Activity assay of compositions, post-emergence spray of stems and leaves; type: in vivo; conditions: for Control effect of B applied alone in a corresponding dose (%): 21 days
Source text: (§1) The required active ingredient B was purchased from a reagent company or a technical material manufacturer or synthesized by a conventional method. The active ingredient A was Compound 74 in Table 1. The technical materials were all dissolved with acetone solvents and diluted with aqueous solution of 0.1% Tween® 80 emulsifier, which should be used immediately after dilution.
(§2) Weeds were cultivated by a pot culture method. […] Weed seeds with plump and uniform grains were selected, soaked in lukewarm water at 25° C. for 6 hours, and accelerated to germinate in a 28° C. biochemical incubator (in darkness). The weed seeds that had just germinated were evenly placed on the surface of the soil and then covered with 0.5-1 cm soil according to the sizes of seeds.
(§3) The weeds were cultured in a controllable sunlight greenhouse at 20-30° C., in natural light, and with relative humidity of 57%-72%. The soil was loam with an organic matter content of 1.63%, a pH value of 7.1, alkali-hydrolyzable nitrogen of 84.3 mg/kg, rapidly available phosphorus of 38.5 mg/kg, and rapidly available potassium of 82.1 mg/kg.
(§4) Each treatment was repeated 4 times for 3 pots. Each pot was seeded with 20 weed seeds.
(§5) The drugs were applied once in total in the experiment. When at the stage of 1.5-2 leaves, the weeds were thinned out to maintain 10 strains per pot. Thirty strains were kept in each treatment and then continued to be cultured until the Erigeron canadensis reached 10 cm tall and other weeds in their 3-4 leaf stage for further treatment.
(§6) The well-cultured test materials were evenly placed on a 0.5 m^2 platform and foliage-sprayed by the 3WP-2000-type walking spray tower at a dosage of […] and a spray pressure of 0.3 MPa. After all the drug solution was sprayed, the air valve was closed. And 30 seconds later, the door of the spray tower was opened, and the nutritional bowl was taken out. Next, the air valve was opened, and the spray tube was cleaned by spraying 50 ml of water. The test materials were transferred to and routinely cultured in a greenhouse after the treatment.
(§7) A method for investigating absolute numbers was employed. The whole seedlings of the survival weeds were cut along the soil surface with a blade, and the fresh weight of the weeds was weighed by an analytical balance. For dead weeds, the fresh weight thereof was considered zero.
(§8) The investigation was performed 21 days after the treatment for once in total.
(§9) The theoretical fresh weight inhibition rate of a mixed combination of each treatment was calculated by the Gowing method (E0=X+Y−X*Y/100). Then compared with the measured inhibition rate (E), the type of the combined action of the combination of the two on weeds was evaluated, which was a synergistic effect when E−E0>10; an antagonistic effect when E−E0<−10%; an additional effect when −10≤E−E0≤[…]. An optimal ratio was determined according to factors such as the actual control effects, characteristics of herbicides, balance of the formulation, etc. In the formula, X represents the fresh weight inhibition rate of the active ingredient A in a dosage of P; Y represents the fresh weight inhibition rate of the active ingredient B in a dosage of Q. The statistical results are shown in Table 5 below.

[2] = system: Veronica; test: Post-emergence test on weeds; type: in vivo; set-up: key: 0 = no effect, 9 = completely dead (levels by growth control rate); conditions: 30 g a.i./ha, 3 weeks after application
Procedure, shortened: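 Damage score 0 (no effect) to 9 (dead), based on fresh-weight growth control rate, recorded 3 weeks after spraying. Plants treated post-emergence at 2-3 leaves via spray tower at 15-120 g a.i./ha. Methyl oleate EC 1.5 L/ha added as synergist; triplicate, averaged.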

[3] = system: Chinese cabbage; test: Post-emergence test, crop safety; conditions: in vivo, 3 weeks
Source text: (§10) The criteria for activity levels of plant damage (i.e., growth control rate) are as follows: • Level 9: completely dead; • Level 8: growth control rate is greater than or equal to 90% and less than 100%; • Level 7: growth control rate is greater than or equal to 80% and less than 90%; • Level 6: growth control rate is greater than or equal to 70% and less than 80%; • Level 5: growth control rate is greater than or equal to 50% and less than 70%; • Level 4: growth control rate is greater than or equal to 30% and less than 50%; • Level 3: growth control rate is greater than or equal to 20% and less than 30%; • Level 2: growth control rate is greater than or equal to 10% and less than 20%; • Level 1: growth control rate is less than 10%; • Level 0: no effect.
(§11) The above growth control rates are fresh weight control rates.
(§12) Monocotyledonous and dicotyledonous weed seeds (Descurainia sophia, Capsella bursa-pastoris, Abutilon theophrasti, Galium spurium, Stellaria media, Lithospermum arvense, Rorippa indica, Alopecurus aequalis, Alopecurus japonicus, Eleusine indica, Beckmannia syzigachne, Sclerochloa dura, Erigeron canadensis, Phleum paniculatum, Veronica, Bromus japonicus, Aegilops tauschii, Phalaris arundinacea, Amaranthus retroflexus, Chenopodium, Commelina communis, Cichorium endivia, Convolvulus arvensis, Cirsium arvense, Solanum nigrum, Acalypha australis, Digitaria sanguinalis, Echinochloa crusgalli, Setaria viridis, Setaria pumila, Leptochloa chinensis, Monochoria vaginalis, Sagittaria trifolia, Schoenoplectiella juncoides, Cyperus rotundus, Cyperus iria, Cyperus difformis, Fimbristylis, Portulaca oleracea, Xanthium sibiricum, Ipomoea nil, Eschenbachia japonica, etc.) and major crop seeds (wheat, maize, paddy rice, soybean, cotton, oilseed rape, millet, sorghum, potato, sesame, castor plant, Chinese cabbage, radish, etc.) were placed in plastic pots filled with soil and then covered with 0.5-2 cm of soil to allow them to grow in a favorable greenhouse environment. Two weeks after sowing, the test plants were treated at the stage of 2-3 leaves. The test compounds of the present invention were individually dissolved with acetone, then added with Tween® 80, with 1.5 L/ha of methyl oleate emulsifiable concentrate as a synergist, diluted into solution of a certain concentration using a certain amount of water, and sprayed to plants using a spray tower. After drug application, the experimental results on weeds were collected after 3 weeks of cultivation in a greenhouse. The compounds were applied at 120, 60, 30, and 15 g a.i./ha in triplicate, and the results were averaged.

[4] = system: Maize; test: Post-emergence test, crop safety; conditions: in vivo, 3 weeks
Source text: as §10, §11, §12

[5] = system: Oilseed rape; test: Post-emergence test, crop safety; conditions: in vivo, 3 weeks
Source text: as §10, §11, §12

[6] = system: Paddy rice; test: Post-emergence test, crop safety; conditions: in vivo, 3 weeks
Source text: as §10, §11, §12

[7] = system: Radish; test: Post-emergence test, crop safety; conditions: in vivo, 3 weeks
Source text: as §10, §11, §12

[8] = system: Wheat; test: Post-emergence test, crop safety; conditions: in vivo, 3 weeks
Source text: as §10, §11, §12

[9] = system: Euphorbia helioscopia; test: Activity assay of compositions, post-emergence spray of stems and leaves; type: in vivo; conditions: A 3 g a.i./ha, fresh weight inhibition, 21 days after treatment, listed as A
Source text: as §1, §2, §3, §4, §5, §6, §7, §8, §9

[10] = system: Veronica; test: as above; type: in vivo; conditions: A 3 g a.i./ha, fresh weight inhibition, 21 days after treatment
Description: (§13) The required active ingredient B was purchased from a reagent company or a technical material manufacturer or synthesized by a conventional method. […] The technical materials were all dissolved with acetone solvents and diluted with aqueous solution of 0.1% Tween® 80 emulsifier, which should be used immediately after dilution.
as §2, §4, §5, §6, §7, §8
The theoretical fresh weight inhibition rate of a mixed combination of each treatment was calculated by the Gowing method (E0=X+Y−X*Y/100). […] An optimal ratio was determined according to factors such as the actual control effects, characteristics of herbicides, balance of the formulation, etc. In the formula, X represents the fresh weight inhibition rate of the active ingredient A in a dosage of P; Y represents the fresh weight inhibition rate of the active ingredient B in a dosage of Q. The statistical results are shown in Table 5 below.

[11] = system: Monochoria vaginalis; test: as above; type: in vivo; conditions: A 3 g a.i./ha, fresh weight inhibition, 21 days after treatment
Description: as §13, §2, §3, §4, §5, §6, §7, §8, §9

| Structure (SMILES) | Control effect of B applied alone in a corresponding dose (%) ([1]; B 7.5 g a.i./ha) | Control effect of B applied alone in a corresponding dose (%) ([1]; B 15 g a.i./ha) | activity level of plant damage (growth control rate), Veronica [2] | activity level of plant damage (growth control rate), Chinese cabbage [3] | activity level of plant damage (growth control rate), Maize [4] | activity level of plant damage (growth control rate), Oilseed rape [5] | activity level of plant damage (growth control rate), Paddy rice [6] | activity level of plant damage (growth control rate), Radish [7] | activity level of plant damage (growth control rate), Wheat [8] | Control effect of A applied alone in a corresponding dose (%) [9] | Control effect of A applied alone in a corresponding dose (%) ([1]; A 3 g a.i./ha, fresh weight inhibition, 21 days after treatment) | Control effect of A applied alone in a corresponding dose (%) [10] | Control effect of A applied alone in a corresponding dose (%) [11] |
| --- | --- | --- | --- | --- | --- | --- | --- | --- | --- | --- | --- | --- | --- |
| CC(C)C12CCC(C)(O1)C(OCc1c(F)cccc1Br)C2 (stereo not shown) | 42.8% | 60.7% | – | – | – | – | – | – | – | – | – | – | – |
| COCCOC(=O)c1nc(-c2ccc(C(F)(F)F)c(OC)c2F)nc(N)c1OC [Compound 74] | – | – | 9 | 0 | 0 | 0 | 0 | 0 | 0 | 58.0% | 37.7% | 62.3% | 66.4% |

Source: patent US20260198497A1, “A BENZENE RING-SUBSTITUTED PYRIMIDINECARBOXYLIC ACID COMPOUND, PREPARATION METHOD THEREFOR, HERBICIDAL COMPOSITION AND APPLICATION THEREOF” (QINGDAO KINGAGROOT CHEMICAL COMPOUND CO., LTD., priority 2023, published 2026)
